Assay results reported in patent US20080213743A1, “Method for adjusting sedimentation rates” (priority 2007, published 2008).

Test system: bone marrow aspirate
Experiment: Centrifugal fractionation of bone marrow aspirate with the whole-blood platelet rich plasma protocol; analysis of ten milliliter concentrate sample
Format: cell-based
Conditions: 60 mls bone marrow aspirate collected into heparin, 8-10 mls of ACD added or heparin alone, two centrifugations
Experimental: In one specific example of the invention, 60 mls of bone marrow aspirate is collected into a bag or syringe having heparin as the anticoagulant. A bag is preferred to be able to inspect the collected marrow. Then, 8-10 mls of ACD are added to the collected aspirate to adjust the sedimentation rate of the components, particularly the red blood cells. The aspirate mixture is then placed in the first chamber of a two-chamber processing unit and subjected to centrifugation according to a known protocol designed to fractionate whole blood for the purpose of making platelet rich plasma as described in U.S. Pat. No. 6,398,972. The supernatant is then decanted to the second chamber and again subjected to centrifugation according to the said process designed to separate platelets to make platelet rich plasma. Supernatant from the second centrifugation is withdrawn to leave a ten milliliter concentrate sample remaining in the chamber. […] In contrast, when same process is followed with heparin alone, the sample is 3% Hct with a TNC of 32.4×10^3/μl.

Substance: heparin
- Hct of concentrate sample: 3 % Hct
- total nucleated cell count (TNC) of concentrate sample: 32400 µL⁻¹
